# Assay results reported in paper PMC11876772 (Materials Today Bio, 2025).
# Assays:
# [1] = system: TLR7/MyD88/NF-кB and MAPK pathways in BMDCs; type: cell-based, ICR mice
# in vitro = details: chicken
structure (smiles),measurement,setting,value
"CC(C)Cn1cnc2c(N)nc3ccccc3c21 [IMQ, imiquimod]",protein expression of TLR7 and MyD88 compared with un-treated BMDCs,[1],induced the high protein expression of TLR7 (P < 0.001) and MyD88 (P < 0.001)
same,hemolysis,in vitro,~37.5%
